Results from publication PMC9843824 (Neuropharmacology, 2022).
Values joined by “and” are separate entries in the source; they are usually repeats but may differ in a detail not shown here. Identical values can stand only once. Like-named read-outs stand apart in the source and are kept apart here.

How the values were obtained:
[1] = tested on: neural activity regulated, high affinity MeAIB/Gln transport in mature rat hippocampal neurons; format: cell-based; settings: for Block of activity regulated MeAIB transport, screen 2 / Result of screen 2 (block of MeAIB transport): compound 10 μM, 14C-MeAIB 5.4 μM; for IC50: read-out: IC50, inhibition of Ca2+-regulated (spontaneous, activity regulated) MeAIB transport, hippocampal neurons DIV 19–21, 2 min preincubation, 37 °C; for Mode of inhibition of Ca2+-regulated MeAIB transport: Michaelis-Menten kinetic analysis; for Reduction of initial velocity (V, Vmax) of MeAIB transport / Vmax of Ca2+-regulated MeAIB transport in presence of inhibitor: inhibitor 1 μM; for Vmax of Ca2+-regulated MeAIB transport in presence of inhibitor: control 107 ± 9
physchem = format: physicochemical
KA rat model of TLE = settings: for Neuroprotection, FJB staining in hippocampus at 3 d: 10 mg/kg i.p. 1 h and 4 h after SE
in vitro = in vitro ADME; settings: rat, plasma
[2] = format: in vivo; settings: rat; for Oral availability / bioavailability: gavage vs i.p.
[3] = tested on: Ca2+-activated K+ channels; settings: ref Sankaranarayanan et al., 2009; cited from earlier work
NaV1.6 = NaV1.6 (Homo sapiens, UniProt Q9UQD0); test: Whole-cell patch-clamp, HEK cells transiently transfected with NaV1.6; format: cell-based; settings: IC50 NaV1.6, holding potential −80 mV, inter-pulse interval 10 s (0.1 Hz)
Sequence of NaV1.6 (Q9UQD0 whole entry): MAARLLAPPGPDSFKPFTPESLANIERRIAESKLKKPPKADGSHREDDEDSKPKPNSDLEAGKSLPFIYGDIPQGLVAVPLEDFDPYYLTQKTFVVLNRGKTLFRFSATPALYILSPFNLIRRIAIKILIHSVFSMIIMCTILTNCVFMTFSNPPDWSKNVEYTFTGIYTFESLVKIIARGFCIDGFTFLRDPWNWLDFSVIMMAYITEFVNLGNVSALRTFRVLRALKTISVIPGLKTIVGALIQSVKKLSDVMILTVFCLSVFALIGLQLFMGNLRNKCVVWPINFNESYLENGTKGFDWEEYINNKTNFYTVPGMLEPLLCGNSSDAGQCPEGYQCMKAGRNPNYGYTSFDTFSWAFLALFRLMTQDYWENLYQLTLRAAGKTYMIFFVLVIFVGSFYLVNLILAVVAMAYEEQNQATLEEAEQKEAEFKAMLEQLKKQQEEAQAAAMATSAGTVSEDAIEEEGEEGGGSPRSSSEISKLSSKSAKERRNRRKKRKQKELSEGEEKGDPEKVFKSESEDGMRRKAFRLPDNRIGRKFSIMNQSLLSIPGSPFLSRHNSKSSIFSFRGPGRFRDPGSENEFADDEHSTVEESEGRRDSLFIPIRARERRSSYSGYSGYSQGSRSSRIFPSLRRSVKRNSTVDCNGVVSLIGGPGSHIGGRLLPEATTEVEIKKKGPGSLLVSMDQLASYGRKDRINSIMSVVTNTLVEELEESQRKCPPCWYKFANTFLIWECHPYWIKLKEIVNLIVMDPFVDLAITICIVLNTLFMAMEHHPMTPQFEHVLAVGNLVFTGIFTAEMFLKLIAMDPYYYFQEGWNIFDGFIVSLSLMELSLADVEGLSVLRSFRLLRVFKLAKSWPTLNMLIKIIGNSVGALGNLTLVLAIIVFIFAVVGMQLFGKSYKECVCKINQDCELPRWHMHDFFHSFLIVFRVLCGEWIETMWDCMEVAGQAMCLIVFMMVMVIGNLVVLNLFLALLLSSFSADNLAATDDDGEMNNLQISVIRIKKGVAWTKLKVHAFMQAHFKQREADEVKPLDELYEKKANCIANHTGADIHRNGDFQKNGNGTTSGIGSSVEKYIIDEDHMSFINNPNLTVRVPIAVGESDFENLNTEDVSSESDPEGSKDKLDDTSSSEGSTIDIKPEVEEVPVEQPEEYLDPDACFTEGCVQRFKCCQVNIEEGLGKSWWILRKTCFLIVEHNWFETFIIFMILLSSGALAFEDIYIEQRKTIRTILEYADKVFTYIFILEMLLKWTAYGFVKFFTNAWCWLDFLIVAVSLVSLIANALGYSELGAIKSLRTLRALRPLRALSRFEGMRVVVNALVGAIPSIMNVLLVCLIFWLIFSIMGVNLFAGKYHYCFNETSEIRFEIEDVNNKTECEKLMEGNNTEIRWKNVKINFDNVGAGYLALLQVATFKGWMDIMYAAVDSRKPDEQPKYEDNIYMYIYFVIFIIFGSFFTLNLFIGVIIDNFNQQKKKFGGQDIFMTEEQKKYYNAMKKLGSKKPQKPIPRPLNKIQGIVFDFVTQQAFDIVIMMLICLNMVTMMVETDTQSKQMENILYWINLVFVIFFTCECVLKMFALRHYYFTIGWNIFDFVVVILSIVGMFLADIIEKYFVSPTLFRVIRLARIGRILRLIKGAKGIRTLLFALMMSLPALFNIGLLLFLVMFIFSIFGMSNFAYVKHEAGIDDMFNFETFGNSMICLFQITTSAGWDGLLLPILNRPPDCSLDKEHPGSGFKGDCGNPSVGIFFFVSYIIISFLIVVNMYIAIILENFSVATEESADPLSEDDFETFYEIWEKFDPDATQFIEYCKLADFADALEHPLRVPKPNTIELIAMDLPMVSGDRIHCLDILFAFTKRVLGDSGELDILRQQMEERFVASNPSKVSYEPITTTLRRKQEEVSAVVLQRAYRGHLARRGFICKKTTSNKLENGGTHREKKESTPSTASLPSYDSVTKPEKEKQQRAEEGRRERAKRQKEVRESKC

NaV1.2 = NaV1.2 (Mus musculus, UniProt B1AWN6); format: cell-based
Sequence of NaV1.2 (B1AWN6 whole entry): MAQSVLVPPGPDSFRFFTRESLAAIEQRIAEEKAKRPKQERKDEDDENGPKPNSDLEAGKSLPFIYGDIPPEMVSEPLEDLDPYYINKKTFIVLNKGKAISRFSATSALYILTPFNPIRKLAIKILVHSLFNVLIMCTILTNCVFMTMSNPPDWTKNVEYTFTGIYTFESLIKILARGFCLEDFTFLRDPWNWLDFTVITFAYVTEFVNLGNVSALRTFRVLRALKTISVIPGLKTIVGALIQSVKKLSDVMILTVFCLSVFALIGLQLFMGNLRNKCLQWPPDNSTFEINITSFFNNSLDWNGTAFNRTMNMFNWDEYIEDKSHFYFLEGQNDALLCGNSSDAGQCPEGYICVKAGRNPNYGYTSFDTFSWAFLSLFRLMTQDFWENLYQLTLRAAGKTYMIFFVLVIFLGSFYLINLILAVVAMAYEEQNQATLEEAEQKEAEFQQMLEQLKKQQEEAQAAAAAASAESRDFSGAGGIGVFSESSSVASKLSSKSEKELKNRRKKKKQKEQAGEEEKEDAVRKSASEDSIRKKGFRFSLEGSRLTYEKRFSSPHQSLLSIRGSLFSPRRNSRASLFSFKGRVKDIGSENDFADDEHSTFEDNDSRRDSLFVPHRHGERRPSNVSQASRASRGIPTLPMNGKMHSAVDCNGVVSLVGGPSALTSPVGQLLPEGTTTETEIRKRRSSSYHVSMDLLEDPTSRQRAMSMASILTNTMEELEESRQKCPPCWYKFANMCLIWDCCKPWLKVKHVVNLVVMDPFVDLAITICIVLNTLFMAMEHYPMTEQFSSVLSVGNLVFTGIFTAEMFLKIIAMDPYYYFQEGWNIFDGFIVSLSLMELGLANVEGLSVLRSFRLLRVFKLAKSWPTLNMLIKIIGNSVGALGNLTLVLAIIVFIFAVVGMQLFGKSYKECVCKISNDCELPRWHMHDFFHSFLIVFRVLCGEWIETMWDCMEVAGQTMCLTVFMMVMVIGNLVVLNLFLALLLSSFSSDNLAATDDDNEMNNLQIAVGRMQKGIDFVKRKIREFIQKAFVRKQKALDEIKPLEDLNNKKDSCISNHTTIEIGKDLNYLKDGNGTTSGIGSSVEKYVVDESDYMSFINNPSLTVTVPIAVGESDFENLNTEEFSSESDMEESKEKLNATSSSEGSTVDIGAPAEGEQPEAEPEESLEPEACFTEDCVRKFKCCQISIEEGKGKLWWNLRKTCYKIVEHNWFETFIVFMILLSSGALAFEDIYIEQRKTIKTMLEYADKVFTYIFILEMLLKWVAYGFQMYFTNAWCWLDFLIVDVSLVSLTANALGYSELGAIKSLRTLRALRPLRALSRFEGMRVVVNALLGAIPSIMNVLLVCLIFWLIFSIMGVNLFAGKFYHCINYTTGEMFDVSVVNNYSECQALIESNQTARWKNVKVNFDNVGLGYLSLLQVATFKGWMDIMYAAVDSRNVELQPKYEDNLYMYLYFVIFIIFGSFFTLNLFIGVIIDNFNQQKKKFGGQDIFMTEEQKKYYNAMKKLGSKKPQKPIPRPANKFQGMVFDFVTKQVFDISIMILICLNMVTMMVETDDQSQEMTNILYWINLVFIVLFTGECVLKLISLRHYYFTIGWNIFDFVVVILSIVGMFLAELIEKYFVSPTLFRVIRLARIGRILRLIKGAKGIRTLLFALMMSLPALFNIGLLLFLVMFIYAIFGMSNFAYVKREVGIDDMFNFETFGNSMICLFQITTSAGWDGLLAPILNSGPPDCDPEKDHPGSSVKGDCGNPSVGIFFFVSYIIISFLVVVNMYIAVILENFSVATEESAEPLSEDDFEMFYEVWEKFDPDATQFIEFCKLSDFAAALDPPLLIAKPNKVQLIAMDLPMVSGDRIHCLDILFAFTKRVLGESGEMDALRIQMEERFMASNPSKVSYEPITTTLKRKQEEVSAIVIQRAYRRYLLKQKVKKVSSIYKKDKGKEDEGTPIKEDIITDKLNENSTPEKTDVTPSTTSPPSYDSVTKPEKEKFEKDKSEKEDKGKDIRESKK

[4] = tested on: Ca2+-independent (low affinity) MeAIB transport in mature rat hippocampal neurons; format: cell-based; settings: at 15 min of uptake
[5] = 30 mg/kg i.p. 1 h and 4 h after SE, then once/day for 2 d

Nc1nc(-c2ccc3ccccc3c2)cs1 [SKA-76, 4-(Naphthalen-2-yl)thiazol-2-amine]
Block of activity regulated MeAIB transport, screen 2 [1]: ~ 50%
IC50 ([1]; 15 min uptake): 6.2 ± 0.9 µM
logP (physchem): 4.05

Nc1nc(-c2cccc3ccccc23)cs1 [SKA-75, 4-(Naphthalen-1-yl)thiazol-2-amine]
Block of activity regulated MeAIB transport, screen 2 [1]: ~ 50%
IC50 ([1]; 15 min uptake): 4.5 ± 0.45 µM
logP (physchem): 4.05

Nc1nc(-c2ccc3ccccc3c2)c(Br)s1 [SKA-220, 5-Bromo-4-(naphthalen-2-yl)thiazol-2-amine]
Result of screen 2 (block of MeAIB transport) [1]: active
logP (physchem): 4.42

Nc1nc(-c2ccc(OC(F)(F)F)cc2)c(Cl)s1 [SKA-376, 5-Chloro-4-(4-(trifluoromethoxy)phenyl)thiazol-2-amine]
Hippocampal neural injury by FJB staining and NeuN fluorescence at 3 d (KA rat model of TLE; [5]): did not significantly reduce neural injury
IC50 ([1]; 15 min uptake): 4.3 ± 0.4 µM
logP (physchem): 4.53
fraction unbound (in vitro): 0.015

Nc1nc(-c2ccc(OC(F)(F)F)cc2)cs1 [SKA-41, 4-(4-(Trifluoromethoxy)phenyl)thiazol-2-amine]
Neuroprotection, FJB staining in hippocampus at 3 d (KA rat model of TLE; then once/day for 2 d): neuro-protective, but not as protective as riluzole
Brain penetration [2]: excellent
Oral availability / bioavailability [2]: excellent
logP (physchem): 4.58
fraction unbound (in vitro): 0.043
Activity on Ca2+-activated K+ channels [3]: inactive

Nc1nc(-c2cccc3ccccc23)c(Cl)s1 [SKA-378, 5-Chloro-4-(naphthalen-1-yl)thiazol-2-amine]
Neuroprotection, FJB staining in hippocampus at 3 d (KA rat model of TLE; then once/day for 2 d): neuro-protective, but not as protective as riluzole
FJB staining in hippocampal CA1-4 neurons at 3 d (KA rat model of TLE; [5]): minimal
NeuN fluorescence in pyramidal neuron subfields at 3 d (KA rat model of TLE; [5]): largely prevents the diminished NeuN fluorescence
Rats still exhibiting maximal stage 5 seizures (Racine scale) (KA rat model of TLE; 30 mg/kg i.p. given before KA (pretreatment)): > 50%
FJB staining, hippocampal CA pyramidal neuron layers at 3 d (KA rat model of TLE; 30 mg/kg i.p. pretreatment): blocks neuronal hippocampal injury
NeuN fluorescent intensity in CA4, CA3, CA1 at 3 d (KA rat model of TLE; 30 mg/kg i.p. pretreatment): nearly identical to sham levels
Seizure severity vs non-treated KA-injected rats (KA rat model of TLE; 30 mg/kg i.p. pretreatment): did not show a significant reduction in seizure severity
Duration of KA-induced SE events (KA rat model of TLE; 30 mg/kg post-SE): not affected
Brain penetration [2]: excellent
Mode of inhibition of Ca2+-regulated MeAIB transport [1]: noncompetitive
Reduction of initial velocity (V, Vmax) of MeAIB transport [1]: ~ 50%
Vmax of Ca2+-regulated MeAIB transport in presence of inhibitor [1]: 73 ± 6 pmol/min
IC50 ([1]; 15 min uptake): 1.1 ± 0.17 µM
logP (physchem): 4.2
IC50 (NaV1.6): 28 µM and ~28 µM
fraction unbound (in vitro): 0.008

Cc1ccc(-c2csc(N)n2)c2ccccc12 [SKA-190, 4-(4-Methylnaphthalen-1-yl)thiazol-2-amine]
Result of screen 2 (block of MeAIB transport) [1]: active
logP (physchem): 4.53

Cc1ccc(-c2nc(N)sc2Cl)c2ccccc12 [SKA-377, 5-Chloro-4-(4-methylnaphthalen-1-yl)thiazol-2-amine]
Neuroprotection, FJB staining in hippocampus at 3 d (KA rat model of TLE; then once/day for 2 d): neuro-protective, but not as protective as riluzole
Hippocampal neural injury by FJB staining and NeuN fluorescence at 3 d (KA rat model of TLE; [5]): neuroprotective
Oral availability / bioavailability [2]: excellent oral availability
logP (physchem): 4.91
fraction unbound (in vitro): 0.01

Nc1nc(-c2ccc3ccccc3c2)c(F)s1 [SKA-382, 5-Fluoro-4-(naphthalen-2-yl)thiazol-2-amine]
logP (physchem): 4.14

Nc1nc(-c2ccc3ccccc3c2)c(Cl)s1 [SKA-379, 5-Chloro-4-(naphthalen-2-yl)thiazol-2-amine]
Neuroprotection, FJB staining in hippocampus at 3 d (KA rat model of TLE; then once/day for 2 d): neuro-protective, but not as protective as riluzole
Hippocampal neural injury by FJB staining and NeuN fluorescence at 3 d (KA rat model of TLE; [5]): neuroprotective
IC50 ([1]; 15 min uptake): 6.5 ± 0.25 µM
logP (physchem): 4.42

Nc1nc(-c2cccc3ccccc23)c(Br)s1 [SKA-219, 5-Bromo-4-(naphthalen-1-yl)thiazol-2-amine]
Block of activity regulated MeAIB transport, screen 2 [1]: > 95%
logP (physchem): 4.76
fraction unbound (in vitro): 0.005

Nc1nc2ccc(OC(F)(F)F)cc2s1 [Riluzole, reference compound]
Neuroprotection, FJB staining in hippocampus at 3 d (KA rat model of TLE; then once/day for 2 d): prevents acute neural injury altogether
Behaviour of rats after treatment (KA rat model of TLE; 10 mg/kg post-SE): relatively immobile/sedated
Duration of KA-induced SE events (KA rat model of TLE; 10 mg/kg post-SE, untreated 4–6 h): less than 2 h
Behaviour of rats at higher doses (KA rat model of TLE; e.g., 30 mg/kg): render rats immobile and unresponsive
Neural injury in hippocampal limbic areas (KA rat model of TLE; post-treated): largely prevented neural injury
Mode of inhibition of Ca2+-regulated MeAIB transport [1]: noncompetitive
Reduction of initial velocity (V, Vmax) of MeAIB transport [1]: ~ 50%
Vmax of Ca2+-regulated MeAIB transport in presence of inhibitor [1]: 54 ± 1 pmol/min
IC50 ([1]; 15 min uptake): 0.86 ± 0.02 µM
Spontaneous MeAIB transport after 15 min in presence of inhibitor ([1]; riluzole 10 μM, 23.4 μM 14C-MeAIB, total without inhibitor 619±21): 133 ± 8 pmol/well
Frequency dependence of NaV1.2 block (NaV1.2): not frequency dependent
IC50 (NaV1.6): 115 ± 2 µM

COc1ccc(CCN(C)CCCC(C#N)(c2ccc(OC)c(OC)c2)C(C)C)cc1OC (stereo not drawn) [verapamil, reference compound]
Spontaneous MeAIB transport after 15 min in presence of inhibitor [1]: 119 ± 9 pmol/well

CNC(C)(C)C(=O)O [MeAIB, methylaminoisobutryic acid, reference compound]
Vmax of Ca2+-dependent MeAIB transport ([1]; at 15 min of uptake): 1605 ± 139 pmol/well
Km ([1]; read-out: Km for spontaneous Ca2+-dependent MeAIB transport, Michaelis-Menten analysis, 15 min uptake): 61 ± 5 µM
Vmax of Ca2+-independent MeAIB transport [4]: 1793 ± 131 pmol/well

Cc1ccc(-c2nc(N)sc2Br)c2ccccc12 [SKA-375, 5-Bromo-4-(4-methylnaphthalen-1-yl)thiazol-2-amine]
logP (physchem): 5.25
